This note sets out measurements from EPA's ToxValDB 9.5.

SMILES strings stand for the structures. Values joined by “and” are separate entries in the source; they are usually repeats but may differ in a detail not shown here. Equal entries are not always repeated.

The subject of data set [1] is Rattus norvegicus. As to conditions: for LC50 / LD50: acute.
The subject of data set [2] is Mus musculus. As to conditions: oral.
Data set [3] relates to Oryctolagus sp. To be noted: for LD50: acute, dermal; for NOAEL: duration: 13 days, oral.
The test system of data set [4] is Oryctolagus sp. The data set is described as follows: LD0; higher = less toxic. As to conditions: acute.
Data set [5] deals with Rattus norvegicus. As to conditions: oral, gavage.
In data set [6] the test system is Oryctolagus sp.
Data set [7] has as its system Oryctolagus sp. This is another data set of the same source.
The subject of data set [8] is Mus musculus. As to conditions: oral; for NOAEL: M/F.
The test system of data set [9] is Rattus norvegicus. To be noted: oral, diet.
Data set [10] deals with Mus musculus. As to conditions: chronic; duration: 2 years; inhalation; intermittent; Nasal mucosa: Hyperplasia + Nasal mucosa: Hypertrophy.
The test system of data set [11] is Canidae. To be noted: chronic, oral, M/F, Dog Other.
Data set [12] has as its system Rattus norvegicus. To be noted: subchronic; duration: 90 days; inhalation; M/F; Wistar; hepatic.
The test system of data set [13] is Mus musculus. As to conditions: developmental, oral, gavage, developmental.
In another data set the test system is Chrysomus sp. To be noted: oral.
Data set [14] has as its system Mus musculus. As to conditions: repeat dose other; oral.
Data set [15] concerns Rattus norvegicus. As to conditions: M/F.
Data set [16] concerns Mus musculus. As to conditions: oral, M/F.
The subject of data set [17] is Rattus norvegicus. Description: LD0; higher = less toxic. To be noted: acute; oral; gavage.
The test system of data set [18] is Canidae. To be noted: chronic; duration: 2 years; oral; diet; Dog Other; Central nervous system: Convulsions + Liver: Lesions.
Data set [19] has as its system Canidae. As to conditions: chronic; duration: 2 years; oral; diet; F; Beagle; neurological, hepatic.
The subject of a further data set is Megascops sp. As to conditions: oral.
Data set [20] has as its system Rattus norvegicus. As to conditions: repeat dose other; oral.
The test system of the next data set is Pelecanus occidentalis. As to conditions: oral.
Data set [21] relates to Rattus norvegicus. As to conditions: uterotrophic, Active.
Data set [22] concerns Mus musculus. As to conditions: uterotrophic, injection, Active.
[23] abbreviates: short-term, duration: 4 weeks, oral, diet, Sprague-Dawley.
[24] abbreviates: subchronic, inhalation, M/F, functional and histological peripheral neurotoxicity.
[25] abbreviates: short-term, duration: 28 days, M, Sprague-Dawley, Functional Observational Battery: No urination (week1) + Body Weight Changes: decrease + Food Consumption: decrease + Urinalysis: Volume ….
Where [26] appears, read: duration: 2 years, diet, reduced body weight gain, and increased liver and kidney weight.
Where [27] appears, read: chronic, duration: 104 weeks, hepatic necrosis.
Where [28] appears, read: histological lesions in liver, occasional convulsions.
Setting [29] is: subchronic, gavage, clinical signs (lethargy, prostration, and ataxia and hematological changes.
Where [30] appears, read: chronic, duration: 27 weeks, oral, diet, liver lesions.
The mark [31] stands for this setting: developmental, oral, F, maternal (reduced weight gain) and fetal toxicity.

For orientation: LD50 means the dose expected to kill half of the subjects tested. In general, NOAEL refers to the highest dose or exposure tested at which no adverse effect was seen. The LOAEL is the lowest tested level that showed an adverse finding. Turning to `S=c1[nH]c2ccccc2s1` [2-Mercaptobenzothiazole], the LC50 with Rattus norvegicus [1] (inhalation) was more than 1.27 µg/mL. Besides, the LD50 with Rattus norvegicus [1] (oral, Sprague-Dawley) is 2830 mg/kg and 3800 mg/kg; in the data set with Mus musculus [2] (acute), 2000 mg/kg; in the data set on Oryctolagus sp. [3], more than 7940 mg/kg; in the data set with Oryctolagus sp. [3] (New Zealand), more than 7940 mg/kg. Moreover, the NOAEL is 1800 mg/kg-day and 2200 mg/kg-day in the data set with Rattus norvegicus [1] (developmental, duration: 10 days, oral, gavage, Sprague-Dawley); 300 mg/kg-day in the data set with Rattus norvegicus [1] (reproduction developmental, duration: 10 days, oral, gavage, F, Sprague-Dawley); 2500 ppm in the data set with Rattus norvegicus [1] (reproduction developmental, oral, diet, Crl:CD COBS BR); less than 5000 ppm in the data set with Rattus norvegicus [1] (reproduction developmental, oral, diet, Sprague-Dawley, generation: F0); less than 5000 ppm in the data set with Rattus norvegicus [1] (reproduction developmental, oral, diet, Sprague-Dawley, generation: F1); 714 mg/kg-day in the data set on Rattus norvegicus [1] (setting [23]). Besides, the NOAEL is 375 mg/kg-day in the data set with Rattus norvegicus [1] (subchronic, duration: 13 weeks, oral, gavage, Fischer 344); 300 mg/kg-day in the data set with Oryctolagus sp. [3] (developmental, gavage, New Zealand); 300 mg/kg-day and < 150 mg/kg-day in the data set with Oryctolagus sp. [3] (reproduction developmental, gavage, F, New Zealand). Besides, in the data set with Rattus norvegicus [1] (setting [23]), the LOAEL came out at 1070 mg/kg-day. Besides, the LD0 in the data set on Oryctolagus sp. [4] (oral) is ≥ 7500 mg/kg and ≤ 8750 mg/kg; with Oryctolagus sp. [4] (oral, New Zealand), ≥ 7500 mg/kg and ≤ 8750 mg/kg. Besides, the NOEL with Rattus norvegicus [5] (subchronic, duration: 13 weeks, M/F, Fischer 344, Absolute Organ Weight: Liver increase + Relative Organ Weight: Liver increase) was less than 188 mg/kg-day; in the data set on Rattus norvegicus [5] (subchronic, M, Sprague-Dawley, Clinical Observation: Locomotor activity with ptosis decrease, Salivation + Body Weight Changes: Suppression of body weight gain(tendency…), less than 40 mg/kg-day.

Consider `C=CCCl` [Allyl chloride], for which the NOAEL with Oryctolagus sp. [6] (chronic, duration: 5 months, inhalation, intermittent, Nervous system: Neurotoxicity) is 17 mg/m3; in the data set on Oryctolagus sp. [7] (setting [24]), 17 mg/m3. In addition, in the data set with Oryctolagus sp. [7] (setting [24]), the LOAEL amounted to 206 mg/m3.

In the data set on Mus musculus [8] (developmental, duration: 100 days, drinking water, F, CD1, developmental), `CN(C)N=O` [N-Nitrosodimethylamine] returned an LOAEL of 0.025 mg/kg-day. Also, in the data set with Rattus norvegicus [5] (setting [25]), the NOAEL is less than 0.8 mg/kg-day and the NOEL is less than 0.8 mg/kg-day.

In turn, `CN(C)C=O` [N,N-Dimethylformamide] displayed an NOAEL in the data set on Mus musculus [8] (chronic, duration: 119 days, diet, CD1, hepatic) of 96 mg/kg-day.

Take `ClC=CCCl` [1,3-Dichloropropene]: the NOEL in the data set with Rattus norvegicus [9] (subchronic, duration: 90 days, Organs: Increased weight) came out at 3 mg/kg-day. In addition, the NOAEL in the data set with Mus musculus [10] amounted to 22.7 mg/m3.

`c1ccc(Nc2ccccc2)cc1` [Diphenylamine] came in with an NOAEL with Mus musculus [8] (subchronic, duration: 90 days, diet, CD1) of 2.1 mg/kg-day. In the data set on Canidae [11] (setting [26]), this compound yielded an LEL of 25 mg/kg-day and an NOEL of 2.5 mg/kg-day. In addition, in the data set with Rattus norvegicus [5] (short-term, duration: 28 days, M/F, Fischer 344, Clinical Observation: Dark brown colored bedding + Body Weight Changes: Weight gain decrease + Food Consumption: decrease + Hematology: RBC …), the NOEL came to 111 mg/kg-day.

`ClC1=C(Cl)C2(Cl)C3C(Cl)C(Cl)CC3C1(Cl)C2(Cl)Cl` (stereo not given) [Technical chlordane]: the NOAEL in the data set with Rattus norvegicus [12] was found to be 0.1 mg/m3; in the data set with Chrysomus sp. it was 2.14 mg/kg-day; in the data set on Mus musculus [14] it was 4.6 mg/kg-day; in the data set with Rattus norvegicus [15] (subchronic, inhalation, hepatic effects), 1 mg/m3; with Mus musculus [16] (setting [27]) it was 0.15 mg/kg-day. In addition, the LOAEL in the data set on Mus musculus [13] (duration: 7 days, M/F, albino) was found to be 1 mg/kg-day; in the data set with Chrysomus sp., 10.7 mg/kg-day; in the data set with Mus musculus [14] it was 9.2 mg/kg-day; in the data set on Mus musculus [16] (setting [27]) it was 0.75 mg/kg-day.

With `CCCCC(CC)COP(=O)(O)O` (stereo not given) [2-Ethylhexyl dihydrogen phosphate], the LD50 is 4100 mg/kg and 2710 mg/kg in the data set on Rattus norvegicus [1] (oral, gavage, Sprague-Dawley); more than 4640 mg/kg with Oryctolagus sp. [3] (New Zealand). Further, the LD0 in the data set on Rattus norvegicus [17] was 3640 mg/kg; in the data set on Oryctolagus sp. [4] (dermal, New Zealand) it was 11300 mg/kg.

As for `ClC1=C(Cl)[C@]2(Cl)[C@@H]3[C@H]4C[C@H]([C@@H]5O[C@H]45)[C@@H]3[C@@]1(Cl)C2(Cl)Cl` [Endrin], the NOEL in the data set on Canidae [18] and in the data set with Canidae [11] (setting [28]) was 0.025 mg/kg-day each time. Further, the NOAEL in the data set on Canidae [19] came to 0.025 mg/kg-day; in the data set on Mus musculus [14], 0.092 mg/kg-day; in the data set with Megascops sp., 0.01 mg/kg-day. Besides, the LOAEL in the data set on Mus musculus [14] was 0.92 mg/kg-day; in the data set on Megascops sp. it was 0.1 mg/kg-day; in the data set with Canidae [11] (setting [28]) it was 0.05 mg/kg-day.

`Cc1ccc(O)c(C)c1` [2,4-Dimethylphenol]: the results for the LC50 in the data set on Rattus norvegicus [1] (oral) and in the data set on Mus musculus [2] (acute) were 2300 mg/kg and 809 mg/kg, respectively. The NOAEL in the data set on Mus musculus [2] (subchronic, duration: 90 days, gavage, F) is 50 mg/kg-day; in the data set on Mus musculus [8] (subchronic, duration: 90 days, gavage, Crl:CD-1(ICR)BR-VAF+, Whole Body Effects), 50 mg/kg-day; in the data set with Mus musculus [16] (setting [29]) it was 50 mg/kg-day. The compound further had an LOAEL in the data set on Mus musculus [16] (setting [29]) of 250 mg/kg-day.

Regarding `Clc1ccc(C(c2ccc(Cl)cc2)C(Cl)(Cl)Cl)cc1` [DDT], the NOEL stood at 0.05 mg/kg-day with Rattus norvegicus [9] (chronic, duration: 27 weeks, Liver: Lesions) and 0.05 mg/kg-day in the data set with Rattus norvegicus [15] (setting [30]). In addition, the LOAEL in the data set on Mus musculus [13] (duration: 14 days, M, NMRI) was determined as 0.5 mg/kg-day; in the data set with Rattus norvegicus [20], 4 mg/kg-day; in the data set with Pelecanus occidentalis, 0.028 mg/kg-day; with Rattus norvegicus [15] (setting [30]), 0.39 mg/kg-day. For the same compound, the NOAEL amounted to 0.8 mg/kg-day in the data set with Rattus norvegicus [20] and 0.0028 mg/kg-day in the data set on Pelecanus occidentalis. Also, the LEL with Rattus norvegicus [21] (duration: 1 days, injection, intraperitoneal) turned out to be 12.5 mg; with Rattus norvegicus [21] (duration: 3 days, injection, intraperitoneal), 4 mg; in the data set on Rattus norvegicus [21] (duration: 3 days, oral), 100 mg/kg-day; in the data set on Mus musculus [22] (duration: 3 days, intraperitoneal) it was 100 mg/kg-day; with Mus musculus [22] (duration: 3 days, subcutaneous), 1000 mg/kg-day; in the data set with Mus musculus [22] (duration: 5 days, subcutaneous), 10 mg/kg-day.

Consider `COc1c(Cl)ccc(Cl)c1C(=O)O` [Dicamba], for which the NOAEL in the data set on Oryctolagus sp. [6] (developmental, duration: 12 days, oral, gavage, Dam: Decreased weight gain + Fetus: Decreased weight + Fetus: Increased mortality + Fetus: Increased post-implantation losses) is 3 mg/kg-day; with Rattus norvegicus [1] (developmental, duration: 14 days, oral, gavage, Crj:CD) it was not above 400 mg/kg-day; in the data set with Rattus norvegicus [1] (reproduction developmental, duration: 14 days, oral, gavage, F, Crj:CD) it was not above 160 mg/kg-day; in the data set with Oryctolagus sp. [3] (reproduction developmental, F, New Zealand) it was not above 30 mg/kg-day; in the data set with Oryctolagus sp. [3] (reproduction developmental, New Zealand, generation: F1), not above 300 mg/kg-day. Also, the LEL in the data set with Oryctolagus sp. [7] (setting [31]) was determined as 10 mg/kg-day. Also, the NOEL in the data set on Oryctolagus sp. [7] (setting [31]) is 3 mg/kg-day.
